Test results reported in patent publication US12416008B2, “Compositions and methods of use for small-molecule regulation of CRISPR-Cas9 activity using RNA aptamers” (priority 2019, dated 2025).

Test system: galK 1 site
Experiment: red/white colony screen of editing efficiency at the galK 1 site (CREATE recombineering)
Type: cell-based, E. coli MG1655
Details: for Editing Efficiency 1 mM Theo: induced for 3 hours with 1 mM theophylline; for Editing Efficiency no Theo: no theophylline, 3 hours recovery
Experimental: Candidates from this enriched library were analyzed to inform an improved library design. After three selection/counterselection steps, cells were plated on M63 selection medium^20 and 150 colonies were picked. Each isolated candidate was then transformed into unedited E. coli to screen for theophylline-responsive constructs using a red/white colony assay to quantify the percentage of edited bacteria. Colonies with an unedited galK site appear red whereas edited colonies appear white (FIG. 5). The percentage of white colonies is considered the editing efficiency. Gene editing was induced as previously described with or without adding theophylline and the editing efficiencies were compared.
The protocol established by Garst et al was mainly followed. LB containing kanamycin and chloramphenicol was inoculated with MGλ9 cells and grown overnight at 30° C. The stationary culture was diluted 100 fold in LB, containing chloramphenicol, kanamycin and 0.2% arabinose and grown to an OD600=0.4-0.6 in 25 mL LB. The culture was heat-shocked in a shaking waterbath at 42° C. for 15 minutes to induce expression of the lambda-red proteins from pSIM5. Then, the culture was washed in two volumes of ice-cold deionized water, resuspended in 500 μl deionized water and 50 μl of the cell suspension was electroporated with 200 ng of a CREATE plasmid that encodes gRNA and homology template. The transformants were recovered in 4 mL of LB, containing 0.2% arabinose and optionally 1 mM theophylline or 1 μM anhydrotetracycline (ATC), and shaken at 37° C. for 3 hours before plating on MacConkey Agar. To estimate the number of cfu, aliquots were plated on LB agar 1 hour after transformation.
In order to assess the frequency of gene editing, a red/white screen was used to visualize the introduction of a stop codon into the galK gene by CREATE. The original CREATE protocol was used for inducing gene editing and after 3 hours of recovery (with or without the agRNA ligand) a series of dilutions of the cultures were plated on MacConkey Agar plates containing 1% galactose. Bacterial colonies with a mutated galK* site appear white on the plates, whereas non-edited colonies appear red. The editing efficiency could be calculated by dividing the number of edited colonies over the total number of colonies. By comparing the editing efficiency in presence versus absence of the ligand, a dynamic range of the in vivo activity could be determined.
When screening the enriched libraries for switchable constructs, the transformants were recovered in 4 mL of LB broth, a dilution series was plated for every construct and the experiment was only carried out once due to the large volume of colonies screened (˜250 in total). When the constructs A9 and GU19 were characterized in detail, triplica of the experiment were carried out.

GC4: agRNA cassette GGTCGGCCAGTAGC, SEQ ID NO: 55 (expressed or natural sequence)
Editing Efficiency 1 mM Theo: 1%
Editing Efficiency no Theo: 0%

GC18: agRNA cassette GATTGGCCGCAACC, SEQ ID NO: 68 (expressed or natural sequence)
Editing Efficiency 1 mM Theo: 48%
Editing Efficiency no Theo: 0%

GU12: agRNA cassette GCCGGGCCTTTTTT, SEQ ID NO: 44 (expressed or natural sequence)
Editing Efficiency 1 mM Theo: 7%
Editing Efficiency no Theo: 0%

GC11: agRNA cassette GCGTGGCCCTTCCC, SEQ ID NO: 62 (chemistry not given here)
Editing Efficiency 1 mM Theo: 3%
Editing Efficiency no Theo: 0%

GU17: agRNA cassette GTAAGGCCGCCGAT, SEQ ID NO: 49 (expressed or natural sequence)
Editing Efficiency 1 mM Theo: 0%
Editing Efficiency no Theo: 0%

3-methylxanthine aptamer: theophylline aptamer domain with C22A point mutation at the ligand-binding site; SEQ ID NO: 96 (AUACCAGCUUCGAAAGAAGCCAUUGGCAG; listed as RNA, chemistry not fully specified)
gene editing activity and ligand dependence (in words) (with and without aptamer ligand): not activatable by theophylline

GC9: agRNA cassette GCAGGGCCTCTAAC, SEQ ID NO: 60 (expressed or natural sequence)
Editing Efficiency 1 mM Theo: 0%
Editing Efficiency no Theo: 0%

AU18: agRNA cassette AATAGGCCCAGACT, SEQ ID NO: 31 (expressed or natural sequence)
Editing Efficiency 1 mM Theo: 7%
Editing Efficiency no Theo: 0%

GC10: agRNA cassette GAGCGGCCACAACC, SEQ ID NO: 61 (expressed or natural sequence)
Editing Efficiency 1 mM Theo: 0%
Editing Efficiency no Theo: 0%

AU11: agRNA cassette AATAGGCCACTTAT, SEQ ID NO: 25 (expressed or natural sequence)
Editing Efficiency 1 mM Theo: 25%
Editing Efficiency no Theo: 0%

A8: agRNA cassette CGGGGGACAATAGG, SEQ ID NO: 12 (expressed or natural sequence)
Editing Efficiency 1 mM Theo: 82%
Editing Efficiency no Theo: 2%

AU15: agRNA cassette ACCCGGCCATTCAT, SEQ ID NO: 28 (expressed or natural sequence)
Editing Efficiency 1 mM Theo: 5%
Editing Efficiency no Theo: 0%

RG53: agRNA cassette AGTGAGCTAAAAAT, SEQ ID NO: 3 (expressed or natural sequence)
Editing Efficiency 1 mM Theo: 22%
Editing Efficiency no Theo: 0%

GU15: agRNA cassette GGACGGCCTACAAT, SEQ ID NO: 47 (expressed or natural sequence)
Editing Efficiency 1 mM Theo: 11%
Editing Efficiency no Theo: 0%

GC1: agRNA cassette GCTGGGCCCTTCCC, SEQ ID NO: 52 (expressed or natural sequence)
Editing Efficiency 1 mM Theo: 0%
Editing Efficiency no Theo: 0%

GC17: agRNA cassette GACCGGCCCCCCGC, SEQ ID NO: 67 (expressed or natural sequence)
Editing Efficiency 1 mM Theo: 2%
Editing Efficiency no Theo: 0%

GC2: agRNA cassette GTCAGGCCTATACC, SEQ ID NO: 53 (expressed or natural sequence)
Editing Efficiency 1 mM Theo: 0%
Editing Efficiency no Theo: 0%

GU5: agRNA cassette GGTTGGCCTAATAT, SEQ ID NO: 38 (expressed or natural sequence)
Editing Efficiency 1 mM Theo: 2%
Editing Efficiency no Theo: 0%

GC5: agRNA cassette GTTGGGCCGCGGAC, SEQ ID NO: 56 (expressed or natural sequence)
Editing Efficiency 1 mM Theo: 0%
Editing Efficiency no Theo: 0%

GC8: agRNA cassette GGACGGCCCTGTGC, SEQ ID NO: 59 (expressed or natural sequence)
Editing Efficiency 1 mM Theo: 0%
Editing Efficiency no Theo: 1%

A10: agRNA cassette GATGGGCCTCCACC, SEQ ID NO: 9 (expressed or natural sequence)
Editing Efficiency 1 mM Theo: 14%
Editing Efficiency no Theo: 0%

AU1: agRNA cassette AGGGGGCCTATAAT, SEQ ID NO: 15 (expressed or natural sequence)
Editing Efficiency 1 mM Theo: 2%
Editing Efficiency no Theo: 0%

AU4: agRNA cassette AACAGGCCTTAATT, SEQ ID NO: 18 (expressed or natural sequence)
Editing Efficiency 1 mM Theo: 0%
Editing Efficiency no Theo: 0%

GC6: agRNA cassette GATTGGCCAGCAAC, SEQ ID NO: 57 (expressed or natural sequence)
Editing Efficiency 1 mM Theo: 40%
Editing Efficiency no Theo: 1%

AU14: agRNA cassette AGTGGGCCAGCCTT, SEQ ID NO: 27 (expressed or natural sequence)
Editing Efficiency 1 mM Theo: 17%
Editing Efficiency no Theo: 0%

GU3: agRNA cassette GCAGGGCCTCATTT, SEQ ID NO: 36 (expressed or natural sequence)
Editing Efficiency 1 mM Theo: 0%
Editing Efficiency no Theo: 0%

GC7: agRNA cassette GGGGGGCCGAATAC, SEQ ID NO: 58 (expressed or natural sequence)
Editing Efficiency 1 mM Theo: 71%
Editing Efficiency no Theo: 1%

G1B1: agRNA, 2×4 IL and upper stem cassette GTATCGCTTAAGCC, SEQ ID NO: 2 (expressed or natural sequence)
Editing Efficiency 1 mM Theo: 59%
Editing Efficiency no Theo: 1%

AU7: agRNA cassette AGTAGGCCTTTCAT, SEQ ID NO: 21 (expressed or natural sequence)
Editing Efficiency 1 mM Theo: 58%
Editing Efficiency no Theo: 0%

AU10: agRNA cassette ATAGGGCCATCCAT, SEQ ID NO: 24 (expressed or natural sequence)
Editing Efficiency 1 mM Theo: 13%
Editing Efficiency no Theo: 0%

AU20: agRNA cassette AAATGGCCGGCAAT, SEQ ID NO: 33 (expressed or natural sequence)
Editing Efficiency 1 mM Theo: 0%
Editing Efficiency no Theo: 0%

AU6: agRNA cassette AAGGGGCCTATAAT, SEQ ID NO: 20 (expressed or natural sequence)
Editing Efficiency 1 mM Theo: 77%
Editing Efficiency no Theo: 5%

GC3: agRNA cassette GTCCGGCCCCACAC, SEQ ID NO: 54 (expressed or natural sequence)
Editing Efficiency 1 mM Theo: 12%
Editing Efficiency no Theo: 0%

C2A2: agRNA cassette TAGTGGCTACCATG, SEQ ID NO: 14 (expressed or natural sequence)
Editing Efficiency 1 mM Theo: 84%
Editing Efficiency no Theo: 5%

GU4: agRNA cassette GATTGGCCATACAT, SEQ ID NO: 37 (expressed or natural sequence)
Editing Efficiency 1 mM Theo: 0%
Editing Efficiency no Theo: 0%

A14: agRNA cassette GGAGGTACGGTGCC, SEQ ID NO: 10 (expressed or natural sequence)
Editing Efficiency 1 mM Theo: 87%
Editing Efficiency no Theo: 2%

AU3: agRNA cassette ACAAGGCCCATAAT, SEQ ID NO: 17 (expressed or natural sequence)
Editing Efficiency 1 mM Theo: 72%
Editing Efficiency no Theo: 1%

GU14: agRNA cassette GACTGGCCTATAAT, SEQ ID NO: 46 (expressed or natural sequence)
Editing Efficiency 1 mM Theo: 2%
Editing Efficiency no Theo: 0%
